Laboratory results from ChEMBL document CHEMBL1132141, “Emerging therapies for the prevention or treatment of postmenopausal osteoporosis” (1999).

Species on record: Rattus norvegicus
Assay: Effective concentration against cholesterol-lowering agent in OVX rats
Type: functional

C[C@H]1CCC[C@H](O)CCCCCc2cc(O)cc(O)c2C(=O)O1 [ZERANOL]
ED50: 0.2 mg/kg
